# In PubChem BioAssay (NCI):
#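 Five concentrations, 48 hours, 96-well plates. At the TGI there is no net growth.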
# Legend:
# Experiment in all cases: NCI tumour cell line growth inhibition, 48 h
# DMS 273 small cell lung = system: DMS 273 small cell lung
# M19-MEL melanoma = system: M19-MEL melanoma
# P388 leukemia = system: P388 leukemia
# P388/ADR leukemia = system: P388/ADR leukemia
# SN12K1 renal = system: SN12K1 renal
# DMS 114 small cell lung = system: DMS 114 small cell lung
# LXFL 529 NSCLC = system: LXFL 529 NSCLC
# RXF-631 renal = system: RXF-631 renal
Structure (SMILES),TGI (DMS 273 small cell lung) [µM],TGI (M19-MEL melanoma) [µM],TGI (P388 leukemia) [µM],TGI (P388/ADR leukemia) [µM],TGI (SN12K1 renal) [µM],TGI (DMS 114 small cell lung) [µM],TGI (LXFL 529 NSCLC) [µM],TGI (RXF-631 renal) [µM]
CC1C(=O)C(C)C(c2ccco2)N(N=O)C1c1ccco1 (stereo unspecified),> 100,> 100,> 100,> 100,> 100,–,–,–
O=C(NC(Cc1ccc(I)cc1)C(=O)O)c1ccc(Cl)cc1 (stereo unspecified),> 100,> 100,> 100,> 100,> 100,–,–,–
CNC(C)Cc1ccccc1OC (stereo unspecified),> 100,–,–,–,–,> 100,> 100,> 100
C[n+]1c2ccccc2c(CNC(CS)C(=O)O)c2ccccc21 (stereo unspecified),57.3,90.6,–,–,–,–,> 100,70.4
O=C1OC2(OC2c2ccc(Cl)cc2)c2ccccc21 (stereo unspecified),> 100,> 100,–,–,–,> 100,78.2,–
COc1cc([N+](=O)[O-])ccc1NC(=O)c1cccc([N+](=O)[O-])c1O,–,> 100,–,–,–,> 100,> 100,> 100
N=C(N)SCc1cccc([N+](=O)[O-])c1,> 100,> 100,33.6,41.2,98.6,90.7,–,–
Cc1c2cc[n+](C)cc2c(C)c2c1oc1ccccc12,16.7,8.99,–,–,–,7.86,15.8,–
